Among the data in patent publication US6472418B1, “Non-peptide NK1 receptors antagonists” (Warner-Lambert Company, priority 1998, dated 2002) are IC50 and melting point values, retold here.

In the first data set the target is T1, Human NK1 Receptor (Homo sapiens, UniProt P25103).
T1 construct: endogenous in cells; host or cells: Human lymphoma IM9 cells (whole cells)
T1 sequence (P25103 whole entry): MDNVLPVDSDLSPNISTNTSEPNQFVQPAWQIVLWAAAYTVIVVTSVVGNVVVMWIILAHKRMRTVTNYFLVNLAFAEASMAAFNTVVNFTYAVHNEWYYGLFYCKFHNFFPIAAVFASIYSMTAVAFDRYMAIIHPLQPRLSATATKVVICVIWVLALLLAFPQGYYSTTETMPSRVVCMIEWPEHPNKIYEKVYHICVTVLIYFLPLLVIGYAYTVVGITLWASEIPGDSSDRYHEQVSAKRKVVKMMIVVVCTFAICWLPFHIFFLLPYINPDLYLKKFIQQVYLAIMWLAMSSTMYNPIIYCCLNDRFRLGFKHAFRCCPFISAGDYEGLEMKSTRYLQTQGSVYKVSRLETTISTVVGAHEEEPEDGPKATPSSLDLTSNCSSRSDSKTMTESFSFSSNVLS
The data set can be described thus: In Vitro Human NK1 Receptor Binding Assay ([125I]Bolton-Hunter substance P displacement, IM9 cells). Particulars: Human lymphoma IM9 cells, [125I]Bolton-Hunter substance P (0.05-0.1 nM), 50 min at 21° C.; Table 1; read-out: NK1 binding IC50. An outline of the steps: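 Test compounds competed with 0.05-0.1 nM [125I]Bolton-Hunter substance P for binding to intact IM9 cells over 50 min at 21° C, pH 7.4 buffer with MnCl2 and peptidase inhibitors. […] [Sar9, Met(O2)11] substance P gave non-specific binding. Bound counts were measured after filtration and fitted iteratively.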
Take `C[C@H](NC(=O)[C@@](C)(Cc1c[nH]c2ccccc12)NCc1cc2ccccc2o1)c1ccncc1` (relative stereo) [Example 3, 2-[(Benzofuran-2-ylmethyl)-amino]-3-(1H-indol-3-yl)-2-methyl-N-(1-pyridin-4-yl-ethyl)-propionamide, [R(R*,S*)]]: the IC50 (usually the concentration that inhibits the measured activity by half) was 6 nM. The same measure, in the same setting: then `C[C@H](NC(=O)[C@@H](Cc1c[nH]c2ccccc12)NCCc1cc2ccccc2o1)c1ccccc1` (relative stereo) [Example 7, 2-(2-Benzofuran-2-yl-ethylamino)-3-(1H-indol-3-yl)-N-(1-phenyl-ethyl)-propionamide, [R-(R*,S*)]], with 3.3 nM.

Still in this data set, the particulars now being: Table 4; [125I]Bolton-Hunter substance P displacement, human IM9 cells; read-out: IC50 (nM) hNK1.
`CC=C(C)CCC=C(C)CNC(C)(Cc1c[nH]c2ccccc12)C(=O)NC(C)c1ccccc1` (centres unmarked) [compound 352, 2-(2,6-Dimethyl-octa-2,6-dienylamino)-3-(1H-indol-3-yl)-2-methyl-N-(1-phenyl-ethyl)-propionamide]: the IC50 is 2210 nM. The same measure, in the same setting: then `CC(NC(=O)C(C)(Cc1c[nH]c2ccccc12)NCc1ccc(-c2ccc([N+](=O)[O-])cc2)o1)c1ccccc1` (centres unmarked) [compound 353, 3-(1H-Indol-3-yl)-2-methyl-2-{[5-(4-nitro-phenyl)-furan-2-ylmethyl]-amino}-N-(1-phenyl-ethyl)-propionamide], with 13 nM; and `CC(NC(=O)C(C)(Cc1c[nH]c2ccccc12)NCc1ccc2c(c1)Cc1ccccc1-2)c1ccccc1` (centres unmarked) [compound 354, 2-[(9H-Fluoren-2-ylmethyl)-amino]-3-(1H-indol-3-yl)-2-methyl-N-(1-phenyl-ethyl)-propionamide], with 1730 nM. Still for that read-out and setting: then `CC(NC(=O)C(C)(Cc1c[nH]c2ccccc12)NCc1c[nH]c2ccccc12)c1ccccc1` (centres unmarked) [compound 355, 3-(1H-Indol-3-yl)-2-[(1H-indol-3-ylmethyl)-amino]-2-methyl-N-(1-phenyl-ethyl)-propionamide], with 1050 nM. Regarding `CCCCCC(=Cc1ccccc1)CNC(C)(Cc1c[nH]c2ccccc12)C(=O)NC(C)c1ccccc1` (centres unmarked) [compound 356, 3-(1H-Indol-3-yl)-2-methyl-2-(2-pentyl-3-phenyl-allylamino)-N-(1-phenyl-ethyl)-propionamide], the concentration for half-maximal inhibition (IC50) is above 10000 nM. Turning to `CC(NC(=O)C(C)(Cc1c[nH]c2ccccc12)NCc1cccs1)c1ccccc1` (centres unmarked) [compound 357, 3-(1H-Indol-3-yl)-2-methyl-N-(1-phenyl-ethyl)-2-[(thiophen-2-ylmethyl)-amino]-propionamide], the IC50 was determined as 548 nM. On to `CC(NC(=O)C(C)(Cc1c[nH]c2ccccc12)NCc1ccsc1)c1ccccc1` (centres unmarked) [compound 358, 3-(1H-Indol-3-yl)-2-methyl-N-(1-phenyl-ethyl)-2-[(thiophen-3-ylmethyl)-amino]-propionamide], for which the IC50 is 598 nM. On to `CC(NC(=O)C(C)(Cc1c[nH]c2ccccc12)NCc1ccncc1)c1ccccc1` (centres unmarked) [compound 359, 3-(1H-Indol-3-yl)-2-methyl-N-(1-phenyl-ethyl)-2-[(pyridin-4-ylmethyl)-amino]-propionamide], for which the IC50 came to 3710 nM. In the case of “Toluene-4-sulfonic acid 3-{[2-(1H-indol-3-yl)-1-methyl-1-(1-phenyl-ethylcarbamoyl)-ethylamino]-methyl}-phenyl ester [compound 342]”, the IC50 worked out at 5090 nM.

The data set is the same for the next values; noted with them: Table 5; [125I]Bolton-Hunter substance P displacement, human IM9 cells; read-out: IC50 (nM) hNK1.
In the case of `CC(NC(=O)C(Cc1c[nH]c2ccccc12)NCc1ccccc1OCc1cccnc1)c1ccccc1` (centres unmarked) [compound 361], the IC50 stood at 729 nM.

`CC(NC(=O)C(Cc1c[nH]c2ccccc12)NCc1ccc(C=Cc2ccccc2)o1)c1ccccc1` (centres unmarked) [compound 362]: the IC50 is above 10000 nM.

`CC(NC(=O)C(Cc1c[nH]c2ccccc12)NCc1ccc(OCCCC(C)(C)C(=O)O)cc1)c1ccccc1` (centres unmarked) [compound 364]: the IC50 turned out to be 1250 nM.

Consider `CC(NC(=O)C(Cc1c[nH]c2ccccc12)NCC1CC=C(CCCC(C)(C)O)CC1)c1ccccc1` (centres unmarked) [compound 365], for which the IC50 was 5280 nM. The same measure, in the same setting: then `CC(C)C=CCC1=CCC(CNC(Cc2c[nH]c3ccccc23)C(=O)NC(C)c2ccccc2)CC1` (centres unmarked) [compound 366], with 4050 nM; and `CCOC(=O)Nc1ccccc1CNC(Cc1c[nH]c2ccccc12)C(=O)NC(C)c1ccccc1` (centres unmarked) [compound 367], with 236 nM; and `CC(NC(=O)C(Cc1c[nH]c2ccccc12)NCc1ccc(N2CCOCC2)cc1Cl)c1ccccc1` (centres unmarked) [compound 368], with 2240 nM. On the same count and under the same terms, then `CNS(=O)(=O)c1cc(Cl)ccc1CNC(Cc1c[nH]c2ccccc12)C(=O)NC(C)c1ccccc1` (centres unmarked) [compound 369], with 450 nM.

In the case of `CC(NC(=O)C(Cc1c[nH]c2ccccc12)NCC(Cc1ccccc1)c1ccccc1)c1ccccc1` (centres unmarked) [compound 370], the IC50 is 534 nM. `CC(NC(=O)C(Cc1c[nH]c2ccccc12)NCc1coc2ccccc2c1=O)c1ccccc1` (centres unmarked) [compound 371]: the IC50 was above 10000 nM. Take `CC(NC(=O)C(Cc1c[nH]c2ccccc12)NCC1CSc2c([nH]c3ccccc23)C1=O)c1ccccc1` (centres unmarked) [compound 372]: the IC50 is above 10000 nM.

For `Cc1c(-c2ccccc2)occ(CNC(Cc2c[nH]c3ccccc23)C(=O)NC(C)c2ccccc2)c1=O` (centres unmarked) [compound 373], the IC50 was 507 nM.

`COC(=O)c1ccc(CNC(Cc2c[nH]c3ccccc23)C(=O)NC(C)c2ccccc2)cc1` (centres unmarked) [compound 374]: the IC50 is 1910 nM. On the same count and under the same terms, then `CCCc1nc(-n2cccc2)c(CNC(Cc2c[nH]c3ccccc23)C(=O)NC(C)c2ccccc2)[nH]1` (centres unmarked) [compound 375], with 165 nM; and `CC(NC(=O)C(Cc1c[nH]c2ccccc12)NCC(=Cc1ccccc1)c1ccccc1)c1ccccc1` (centres unmarked) [compound 376], with above 10000 nM; and `CC(NC(=O)C(Cc1c[nH]c2ccccc12)NCC=Cc1ccc2c(c1)OCO2)c1ccccc1` (centres unmarked) [compound 377], with 593 nM. With `CC(NC(=O)C(Cc1c[nH]c2ccccc12)NCC=Cc1ccc(OCc2ccccc2)cc1)c1ccccc1` (centres unmarked) [compound 378], the IC50 was found to be 932 nM. As to `CC(NC(=O)C(Cc1c[nH]c2ccccc12)NCc1ccc(OCc2ccccc2)cc1)c1ccccc1` (centres unmarked) [compound 379], the IC50 was found to be 587 nM. Still for that read-out and setting: then `CC(NC(=O)C(Cc1c[nH]c2ccccc12)NCCCc1cccc2ccccc12)c1ccccc1` (centres unmarked) [compound 380], with 500 nM; and `Cc1ccc(S(=O)(=O)Oc2cccc(CNC(Cc3c[nH]c4ccccc34)C(=O)NC(C)c3ccccc3)c2)cc1` (centres unmarked) [compound 381], with above 10000 nM. Same read-out and setting: then `CC(NC(=O)C(Cc1c[nH]c2ccccc12)NCc1cccc(OCc2ccccc2)c1)c1ccccc1` (centres unmarked) [compound 382], with above 10000 nM. As for `CSc1ccc(CNC(Cc2c[nH]c3ccccc23)C(=O)NC(C)c2ccccc2)cc1` (centres unmarked) [compound 383], the IC50 worked out at 252 nM. Regarding `CC(NC(=O)C(Cc1c[nH]c2ccccc12)NCc1ccc(Oc2ccccc2)cc1)c1ccccc1` (centres unmarked) [compound 384], the IC50 turned out to be 2350 nM. With `CC(NC(=O)C(Cc1c[nH]c2ccccc12)NCc1ccc(-c2ccccc2)cc1)c1ccccc1` (centres unmarked) [compound 385], the IC50 turned out to be 1460 nM. `CC(NC(=O)C(Cc1c[nH]c2ccccc12)NCc1ccc2c(c1)OCO2)c1ccccc1` (centres unmarked) [compound 386]: the IC50 was found to be 240 nM. `CC(NC(=O)C(Cc1c[nH]c2ccccc12)NCc1ccccc1Sc1ccc(Cl)cc1)c1ccccc1` (centres unmarked) [compound 387]: the IC50 is 201 nM. Take `CC=C(C)CCC=C(C)CNC(Cc1c[nH]c2ccccc12)C(=O)NC(C)c1ccccc1` (centres unmarked) [compound 389]: the half-maximal inhibitory concentration (IC50) was found to be 2570 nM. `CC(NC(=O)C(Cc1c[nH]c2ccccc12)NCc1ccc(-c2ccc([N+](=O)[O-])cc2)o1)c1ccccc1` (centres unmarked) [compound 390]: the IC50 was found to be 50 nM. Same read-out and setting: then `CC(NC(=O)C(Cc1c[nH]c2ccccc12)NCc1ccc2c(c1)Cc1ccccc1-2)c1ccccc1` (centres unmarked) [compound 391], with 846 nM. Turning to `Cc1cc(CNC(Cc2c[nH]c3ccccc23)C(=O)NC(C)c2ccccc2)c(C)n1-c1ccccc1` (centres unmarked) [compound 392], the IC50 was above 10000 nM. `CC(NC(=O)C(Cc1c[nH]c2ccccc12)NCc1cccnc1)c1ccccc1` (centres unmarked) [compound 393]: the IC50 turned out to be 802 nM. With `CC(NC(=O)C(Cc1c[nH]c2ccccc12)NCc1ccc2ccccc2c1)c1ccccc1` (centres unmarked) [compound 394], the IC50 was determined as 158 nM. With `CC(NC(=O)C(Cc1c[nH]c2ccccc12)NCc1ccccn1)c1ccccc1` (centres unmarked) [compound 395], the IC50 is above 10000 nM.

As for `CC(NC(=O)C(Cc1c[nH]c2ccccc12)NCc1cccs1)c1ccccc1` (centres unmarked) [compound 396], the IC50 was found to be 1070 nM. Same read-out and setting: then `COc1ccc(CNC(Cc2c[nH]c3ccccc23)C(=O)NC(C)c2ccccc2)cc1OC` (centres unmarked) [compound 397], with above 10000 nM; and `CC(NC(=O)C(Cc1c[nH]c2ccccc12)NCc1cc(C(F)(F)F)cc(C(F)(F)F)c1)c1ccccc1` (centres unmarked) [compound 398], with above 10000 nM. Same read-out and setting: then `CC(NC(=O)C(Cc1c[nH]c2ccccc12)NCc1cc(F)cc(F)c1)c1ccccc1` (centres unmarked) [compound 399], with 140 nM. With `CC(NC(=O)C(Cc1c[nH]c2ccccc12)NCc1cccc(Cl)c1)c1ccccc1` (centres unmarked) [compound 400], the IC50 worked out at 13 nM. The same measure, in the same setting: then `CC(NC(=O)C(Cc1c[nH]c2ccccc12)NCc1cccc(F)c1)c1ccccc1` (centres unmarked) [compound 401], with 39 nM. On the same count and under the same terms, then `CC(NC(=O)C(Cc1c[nH]c2ccccc12)NCc1ccoc1)c1ccccc1` (centres unmarked) [compound 402], with 881 nM; and `CC(NC(=O)C(Cc1c[nH]c2ccccc12)NCCCc1ccccc1)c1ccccc1` (centres unmarked) [compound 403], with 3910 nM. The same measure, in the same setting: then `CC(NC(=O)C(Cc1c[nH]c2ccccc12)NCc1ccsc1)c1ccccc1` (centres unmarked) [compound 404], with 2390 nM; and `CC(NC(=O)C(Cc1c[nH]c2ccccc12)NCc1ccco1)c1ccccc1` (centres unmarked) [compound 405], with 429 nM.

System in the next data set: not given
Experiment: not given
Conditions: not given
Take `C[C@H](NC(=O)[C@@](C)(Cc1c[nH]c2ccccc12)NCc1cc2ccccc2o1)c1ccncc1` (relative stereo) [Example 3, 2-[(Benzofuran-2-ylmethyl)-amino]-3-(1H-indol-3-yl)-2-methyl-N-(1-pyridin-4-yl-ethyl)-propionamide, [R(R*,S*)]]: the melting point (usually the temperature of the solid-liquid transition) lay in the range of 66 to 69 °C.

As for `C[C@H](NC(=O)[C@@H](Cc1c[nH]c2ccccc12)NCCc1cc2ccccc2o1)c1ccccc1` (relative stereo) [Example 7, 2-(2-Benzofuran-2-yl-ethylamino)-3-(1H-indol-3-yl)-N-(1-phenyl-ethyl)-propionamide, [R-(R*,S*)]], the melting point was 105 to 107 °C.
